# In US8058228B2, “Leptin peptide antagonists” (Boston Biomedical Research Institute, priority 2004, dated 2011):
# System: OB-R
# Experiment: LIF-R expression by rabbit endometrial cells (immunocytochemistry, Western blot)
# Type: cell-based
# Conditions: leptin 3 nM; for effect on leptin up-regulation of LIF-R expression: rESC (immunocytochemistry) and rEEC (Western blot), LPA-2 30 and 120 nM; for LIF-R expression after leptin: rESC and rEEC
# Description: Rabbit endometrial cells (5×10^5 cells/well) were cultured for 5-9 days in DMEM-MCDB105 (3:1) medium containing 10% fetal bovine serum (FBS), 5 μg/ml insulin, 1% amphopthericin B, 100 μg/ml streptomycin and 100 U/ml penicillin until confluent layers were obtained. The cells were washed twice with 100 mM phosphate saline buffer (PBS) −2% BSA (w/v), pH 7.2 and cultured for an additional 2 days in the same medium but without FBS (basal medium). This procedure was performed to reduce any effects of cytokines from FBS on the phosphorylation rate of Stat3 as well as the expression of other cytokines and their receptors. Cells were washed as described before and cultured in basal medium containing leptin (0-10 nM), OB-R antibody (1-20 μg/ml) and/or LPA-2 peptides (0-300 nM). Cultures were stopped at 24 h and the cells were used for immunocytochemistry, binding studies and western blot analysis. The conditioned media were collected, lyophilized and stored at −80° C. for ELISA determinations. Duplicate wells were run for each treatment and the experiments repeated at least three times with different cell preparations from different rabbits. Controls were the same cellular preparations cultured in basal medium containing non-specific goat IgGs and LPA-2Sc.
# The rabbit endometrial cells were cultured as described above in duplicate on 8-well glass-bottom culture plates (Nalgene Nunc International, Naperville, Ill.) and fixed with methanol at −20° C. for 20 min for immunocytochemical studies. All the antibodies tested were diluted in PBS-2% BSA (w/v; buffer A).
# Anti IL-1R tl (1 μg/ml), anti LIF-R (2 μg/ml), anti vimentin (1:50), anti cytokeratin (1:50) and anti p-Stat3 (1 μg/ml) antibodies were used to assess the expression of the respective antigens by rEEC and rESC cultures. After incubation with primary antibodies the cells were incubated with a streptavidin-biotin-alkaline phosphatase system according to the manufacturer directions (Vectastain, ABC-AP kit, Vector Laboratories, Burlingame, Calif.) and counter-stained with hematoxylin (Dako). Negative controls included cell preparations in which the primary antibodies were substituted by irrelevant species matched IgGs.
# After culture in the presence of leptin, LPAs or antibodies, the endometrial cells were washed with ice-cold PBS and lysed by homogenization on ice with lysis buffer [[…] Tris, pH 7.4, containing […] NaCl, 2 mM EDTA, 10% glycerol, 50 mM β-glycerophosphate, […] NaF, 1% Nonidet P-40, 2 mM phenyl-methylsulfonyl fluoride, 2 mM sodium orthovanadate, 100 μM antipain, 0.1 mg/ml trypsin inhibitor and protease cocktail inhibitor 1:50 (Sigma)]. […] Protein concentrations were determined using the Bradford protein assay (BioRad Laboratories Inc., Hercules, Calif.). […]
Substance,effect on leptin up-regulation of LIF-R expression,LIF-R expression after leptin,LIF-R expression after leptin (listed as Leptin)
"SRNVIQISNDLENLRDLLHVLAFSKS [LPA-2, 26 amino acid peptide, residues 70-95 of helix III of the human leptin molecule; leptin peptide antagonist]",totally inhibited the leptin effect on LIF-R expression,–,–
"VAEVLNRSDLIQRISFSLDLNNSKLH [LPA-2Sc, scrambled version of LPA-2, negative control, reference compound]",did not prevent the leptin up-regulation of LIF-R,–,–
"leptin: human recombinant leptin (R&D Systems), OB-R ligand used as stimulus",–,up-regulates the expression of LIF-R,significantly increases the expression of LIF-R
